According to patent US8426202B2, “Cell culture medium” (Cellca GmbH, priority 2005, dated 2013):
Where “and” joins values, the source holds several entries; their conditions need not be identical. Identical values can stand only once.

How the values were obtained:
[1] = system: CHO cell line that expresses an antibody; experiment: Fed-batch experiment with the substances according to the invention (Example 2, Table 2); type: cell-based, Chinese hamster; design: Viabil.: concentration or dose not given beside the values
From the text: (§1) Feed took place at regular intervals.

[2] = system: CHO cell line that expresses an antibody; experiment: Batch experiment with the substances according to the invention (Example 1); type: cell-based, Chinese hamster; details: batch mode, substance 0.5-1 g/l, basal medium glucose 4.7 g/l, glutamine […]
Protocol: Cells were stored in the gas phase of liquid nitrogen. One to two ampoules were thawed in nutrient medium preheated to 37° C. and transferred to spinner bottles, shaking flasks or T-bottles. In the first few days of cultivation the medium was changed, depending on the clone.
Depending on the clone, cells were split either every second day or every third day or after two and three days alternately into new medium, i.e. a portion of the cell suspension was removed from culture and a smaller portion of the cell suspension was reused as inoculum for the next culture. This inoculum was made up with fresh prewarmed nutrient medium. Cells were incubated at 37° C. in an incubator with a CO2 atmosphere. An alternative for incubating cells was cultivation in an incubation chamber at 37° C., in this way cells were held in culture for several passages. A passage means a cultivation time of two to three days. At various points of time, cell suspension was taken from strain maintenance and used as inoculum for experiments. The experiments were carried out in various cultivation systems, for example in spinner bottles, T-bottles, shaking flasks, culture tubes or in controlled bioreactors.
as §1

O=C([O-])/C=C/C(=O)[O-].[Na+].[Na+] [Sodium fumarate]
Total Cell Density TCD ([1]; day 0, fed-batch): 1.5 E5/ml | Viabil. ([1]; day 0, fed-batch): 91% | Viable Cell Density (VCD) ([1]; day 0, fed-batch): 1.37 E5/ml | Total Cell Density TCD ([1]; day 2, fed-batch): 3.6 E5/ml | Viabil. ([1]; day 2, fed-batch): 97% | Viable Cell Density (VCD) ([1]; day 2, fed-batch): 3.5 E5/ml | Total Cell Density TCD ([1]; day 5, fed-batch): 13.9 E5/ml and 13.2 E5/ml | Viabil. ([1]; day 5, fed-batch): 96% and 97% | Viable Cell Density (VCD) ([1]; day 5, fed-batch): 13.4 E5/ml and 12.8 E5/ml | Total Cell Density TCD ([1]; day 8, fed-batch): 43.9 E5/ml and 43.8 E5/ml | Viabil. ([1]; day 8, fed-batch): 92% | Viable Cell Density (VCD) ([1]; day 8, fed-batch): 40.3 E5/ml and 40.2 E5/ml | Gln ([2]; day 0): 1.53 mM | Glucose ([2]; day 0): 4.69 g/L | Lactate ([2]; day 0): 0 g/L | NH4 ([2]; day 0): 1.22 mM | Specific Glutamin consumption (Gln/VCD) ([2]; day 0): 1.49 | Specific ammonia production (NH4/VCD) ([2]; day 0): 1.18 | Specific glucose consumption (Gluc/VCD) ([2]; day 0): 4.55 | Specific lactate production (Lac/VCD) ([2]; day 0): 0.00 | Total Cell Density TCD ([2]; day 0): 1.07 E5/ml | Viabil. ([2]; day 0): 96% | Viable Cell Density (VCD) ([2]; day 0): 1.03 E5/ml | Gln ([2]; day 3): 0.72 mM | Glucose ([2]; day 3): 3.98 g/L | Lactate ([2]; day 3): 0.85 g/L | NH4 ([2]; day 3): 1.84 mM | Specific Glutamin consumption (Gln/VCD) ([2]; day 3): 0.10 | Specific ammonia production (NH4/VCD) ([2]; day 3): 0.26 | Specific glucose consumption (Gluc/VCD) ([2]; day 3): 0.57 | Specific lactate production (Lac/VCD) ([2]; day 3): 0.12 | Total Cell Density TCD ([2]; day 3): 7.1 E5/ml | Viabil. ([2]; day 3): 99% | Viable Cell Density (VCD) ([2]; day 3): 7 E5/ml | Gln ([2]; day 6): 0.24 mM | Glucose ([2]; day 6): 2.61 g/L | Lactate ([2]; day 6): 1.19 g/L | NH4 ([2]; day 6): 2.49 mM | Specific Glutamin consumption (Gln/VCD) ([2]; day 6): 0.01 | Specific ammonia production (NH4/VCD) ([2]; day 6): 0.06 | Specific glucose consumption (Gluc/VCD) ([2]; day 6): 0.06 | Specific lactate production (Lac/VCD) ([2]; day 6): 0.03 | Total Cell Density TCD ([2]; day 6): 41.5 E5/ml | Viabil. ([2]; day 6): 98% | Viable Cell Density (VCD) ([2]; day 6): 40.6 E5/ml | Gln ([2]; day 8): 0.37 mM | Glucose ([2]; day 8): 1.68 g/L | Lactate ([2]; day 8): 1.08 g/L | NH4 ([2]; day 8): 2.58 mM | Specific Glutamin consumption (Gln/VCD) ([2]; day 8): 0.02 | Specific ammonia production (NH4/VCD) ([2]; day 8): 0.14 | Specific glucose consumption (Gluc/VCD) ([2]; day 8): 0.09 | Specific lactate production (Lac/VCD) ([2]; day 8): 0.06 | Total Cell Density TCD ([2]; day 8): 22.3 E5/ml | Viabil. ([2]; day 8): 86% | Viable Cell Density (VCD) ([2]; day 8): 19.1 E5/ml | Gln ([2]; day 11): 0.47 mM | Glucose ([2]; day 11): 0.46 g/L | Lactate ([2]; day 11): 1.46 g/L | NH4 ([2]; day 11): 3.06 mM | Specific Glutamin consumption (Gln/VCD) ([2]; day 11): 0.03 | Specific ammonia production (NH4/VCD) ([2]; day 11): 0.21 | Specific glucose consumption (Gluc/VCD) ([2]; day 11): 0.03 | Specific lactate production (Lac/VCD) ([2]; day 11): 0.10 | Total Cell Density TCD ([2]; day 11): 26.2 E5/ml | Viabil. ([2]; day 11): 55% | Viable Cell Density (VCD) ([2]; day 11): 14.3 E5/ml
